Legend:
Type in all cases: in vivo
[1] = system: bromegrass, downy (downy bromegrass, Bromus tectorum); assay: Test C pre-/postemergence: bromegrass, downy
Procedure, shortened: (§1)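 Preemergence on seeds in loam/sand, postemergence on 2–18 cm (1–4-leaf) plants in peat-based medium; compounds in non-phytotoxic solvent with surfactant. After 13–15 days in greenhouse, visual rating versus controls, 0 (no effect) to 100 (complete control).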

[2] = system: bermudagrass (Cynodon dactylon); assay: Test C pre-/postemergence: bermudagrass
Procedure, shortened: as §1

[3] = system: surinam grass (Brachiaria decumbens); assay: Test C pre-/postemergence: surinam grass
Procedure, shortened: as §1

[4] = system: cocklebur (common cocklebur, Xanthium strumarium); assay: Test C pre-/postemergence: cocklebur
Procedure, shortened: as §1

[5] = system: woolly cupgrass (Eriochloa villosa); assay: Test C pre-/postemergence: woolly cupgrass
Procedure, shortened: as §1

[6] = system: goosegrass (Eleusine indica); assay: Test C pre-/postemergence: goosegrass
Procedure, shortened: as §1

[7] = system: common (oilseed) sunflower (Helianthus annuus); assay: Test C pre-/postemergence: sunflower; conditions: Preemergence
Procedure, shortened: as §1

[8] = system: canarygrass (Phalaris minor); assay: Test C postemergence: canarygrass
Procedure, shortened: (§2)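 Greenhouse pot test; foliar postemergence treatment at 1- to 4-leaf stage. Rated visually at 13 to 15 days on a 0–100 control scale relative to untreated plants.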

[9] = system: windgrass (Apera spica-venti); assay: Test C postemergence: windgrass
Procedure, shortened: as §2

[10] = system: deadnettle (henbit deadnettle, Lamium amplexicaule); assay: Test C postemergence: deadnettle
Procedure, shortened: as §2

[11] = Postemergence, 16 g ai/ha, scale 0 to 100, 0 no effect, 100 complete control
[12] = Postemergence, 31 g ai/ha, scale 0 to 100 (0 no effect, 100 complete control)
[13] = Postemergence, 62 g ai/ha, scale 0 to 100 (0 no effect, 100 complete control)
[14] = Postemergence, 125 g ai/ha, scale 0 to 100, 0 no effect, 100 complete control
[15] = Preemergence, 16 g ai/ha, scale 0 (no effect) to 100 (complete control)
[16] = Preemergence, 31 g ai/ha, scale of 0 to 100, 0 is no effect, 100 is complete control
[17] = Preemergence, 62 g ai/ha, scale 0 to 100, 0 no effect, 100 complete control
[18] = Preemergence, 125 g ai/ha, scale 0 to 100, 0 no effect, 100 complete control
[19] = Preemergence, 62 g ai/ha, scale of 0 to 100, 0 is no effect, 100 is complete control
[20] = 31 g ai/ha, scale of 0 to 100, 0 is no effect, 100 is complete control
[21] = 62 g ai/ha, scale of 0 to 100, 0 is no effect, 100 is complete control
[22] = 125 g ai/ha, scale 0 to 100, 0 no effect, 100 complete control
[23] = 16 g ai/ha, scale 0 to 100, 0 no effect, 100 complete control
[24] = 31 g ai/ha, scale 0 to 100 (0 no effect, 100 complete control)
[25] = 62 g ai/ha, scale 0 to 100 (0 no effect, 100 complete control)
[26] = Preemergence, 250 g ai/ha, scale 0 to 100, 0 no effect, 100 complete control
[27] = Postemergence, 250 g ai/ha, scale 0 to 100

COc1nn(-c2ccc(C(F)(F)F)cc2)nc1Cc1ccnc(C(F)(F)F)c1 [Compound 15, 4-[[5-methoxy-2-[4-(trifluoromethyl)phenyl]-2H-1,2,3-triazol-4-yl]methyl]-2-(trifluoromethyl)pyridine]
Plant response rating, Bromegrass, Downy [1, 11]: 10 | Plant response rating, Bromegrass, Downy [1, 12]: 25 | Plant response rating, Bromegrass, Downy [1, 13]: 35 | Plant response rating, Bromegrass, Downy [1, 14]: 40 | Plant response rating, Bromegrass, Downy [1, 15]: 15 | Plant response rating, Bromegrass, Downy [1, 16]: 25 | Plant response rating, Bromegrass, Downy [1, 17]: 30 | Plant response rating, Bromegrass, Downy [1, 18]: 80 | Plant response rating, Bermudagrass [2, 11]: 5 | Plant response rating, Bermudagrass [2, 12]: 5 | Plant response rating, Bermudagrass [2, 13]: 15 | Plant response rating, Bermudagrass [2, 14]: 35 | Plant response rating, Bermudagrass [2, 15]: 100 | Plant response rating, Bermudagrass [2, 16]: 100 | Plant response rating, Bermudagrass [2, 17]: 100 | Plant response rating, Bermudagrass [2, 18]: 100 | Plant response rating, Surinam Grass [3, 11]: 5 | Plant response rating, Surinam Grass [3, 12]: 10 | Plant response rating, Surinam Grass [3, 13]: 15 | Plant response rating, Surinam Grass [3, 14]: 50 | Plant response rating, Surinam Grass [3, 15]: 10 | Plant response rating, Surinam Grass [3, 16]: 40 | Plant response rating, Surinam Grass [3, 19]: 55 | Plant response rating, Surinam Grass [3, 18]: 90 | Plant response rating, Cocklebur [4, 12]: 5 | Plant response rating, Cocklebur [4, 13]: 60 | Plant response rating, Cocklebur [4, 14]: 75 | Plant response rating, Cocklebur [4, 15]: 0 | Plant response rating, Cocklebur [4, 16]: 0 | Plant response rating, Cocklebur [4, 18]: 65 | Plant response rating, Cupgrass, Woolly [5, 11]: 5 | Plant response rating, Cupgrass, Woolly [5, 12]: 5 | Plant response rating, Cupgrass, Woolly [5, 13]: 5 | Plant response rating, Cupgrass, Woolly [5, 14]: 75 | Plant response rating, Cupgrass, Woolly [5, 15]: 5 | Plant response rating, Cupgrass, Woolly [5, 16]: 45 | Plant response rating, Cupgrass, Woolly [5, 19]: 85 | Plant response rating, Cupgrass, Woolly [5, 18]: 95 | Plant response rating, Goosegrass [6, 11]: 5 | Plant response rating, Goosegrass [6, 12]: 25 | Plant response rating, Goosegrass [6, 13]: 40 | Plant response rating, Goosegrass [6, 14]: 65 | Plant response rating, Goosegrass [6, 15]: 100 | Plant response rating, Goosegrass [6, 16]: 100 | Plant response rating, Goosegrass [6, 19]: 100 | Plant response rating, Goosegrass [6, 18]: 100 | Plant response rating, Sunflower ([7]; 16 g ai/ha, scale 0 (no effect) to 100 (complete control)): 0 | Plant response rating, Sunflower [7, 20]: 0 | Plant response rating, Sunflower [7, 21]: 0 | Plant response rating, Sunflower [7, 22]: 25 | Plant response rating, Canarygrass [8, 23]: 35 | Plant response rating, Canarygrass [8, 24]: 60 | Plant response rating, Canarygrass [8, 25]: 85 | Plant response rating, Canarygrass [8, 22]: 85 | Plant response rating, Windgrass [9, 23]: 20 | Plant response rating, Windgrass [9, 24]: 20 | Plant response rating, Windgrass [9, 25]: 85 | Plant response rating, Windgrass [9, 22]: 90 | Plant response rating, Deadnettle [10, 23]: 90 | Plant response rating, Deadnettle [10, 24]: 100 | Plant response rating, Deadnettle [10, 25]: 100 | Plant response rating, Deadnettle [10, 22]: 100

Cc1nn(-c2ccc(C(F)(F)F)cc2)nc1Oc1ccnc(C(F)(F)F)c1 [Compound 120]
Plant response rating, Bromegrass, Downy [1, 12]: 15 | Plant response rating, Bromegrass, Downy [1, 13]: 15 | Plant response rating, Bromegrass, Downy [1, 14]: 30 | Plant response rating, Bromegrass, Downy [1, 16]: 45 | Plant response rating, Bromegrass, Downy [1, 17]: 85 | Plant response rating, Bromegrass, Downy [1, 18]: 90 | Plant response rating, Bromegrass, Downy [1, 26]: 90 | Plant response rating, Bermudagrass [2, 12]: 5 | Plant response rating, Bermudagrass [2, 13]: 5 | Plant response rating, Bermudagrass [2, 14]: 5 | Plant response rating, Bermudagrass [2, 27]: 10 | Plant response rating, Bermudagrass [2, 16]: 98 | Plant response rating, Bermudagrass [2, 17]: 98 | Plant response rating, Bermudagrass [2, 18]: 98 | Plant response rating, Bermudagrass [2, 26]: 100 | Plant response rating, Surinam Grass [3, 12]: 5 | Plant response rating, Surinam Grass [3, 13]: 5 | Plant response rating, Surinam Grass [3, 14]: 20 | Plant response rating, Surinam Grass [3, 27]: 20 | Plant response rating, Surinam Grass [3, 16]: 65 | Plant response rating, Surinam Grass [3, 19]: 95 | Plant response rating, Surinam Grass [3, 18]: 98 | Plant response rating, Surinam Grass [3, 26]: 100 | Plant response rating, Cocklebur [4, 12]: 45 | Plant response rating, Cocklebur [4, 13]: 50 | Plant response rating, Cocklebur [4, 14]: 65 | Plant response rating, Cocklebur [4, 27]: 65 | Plant response rating, Cocklebur [4, 16]: 0 | Plant response rating, Cocklebur [4, 17]: 0 | Plant response rating, Cocklebur [4, 26]: 5 | Plant response rating, Cupgrass, Woolly [5, 12]: 10 | Plant response rating, Cupgrass, Woolly [5, 13]: 10 | Plant response rating, Cupgrass, Woolly [5, 14]: 40 | Plant response rating, Cupgrass, Woolly [5, 27]: 45 | Plant response rating, Cupgrass, Woolly [5, 16]: 90 | Plant response rating, Cupgrass, Woolly [5, 19]: 95 | Plant response rating, Cupgrass, Woolly [5, 18]: 98 | Plant response rating, Cupgrass, Woolly [5, 26]: 98 | Plant response rating, Goosegrass [6, 12]: 5 | Plant response rating, Goosegrass [6, 13]: 5 | Plant response rating, Goosegrass [6, 14]: 10 | Plant response rating, Goosegrass [6, 27]: 45 | Plant response rating, Goosegrass [6, 16]: 98 | Plant response rating, Goosegrass [6, 19]: 98 | Plant response rating, Goosegrass [6, 18]: 98 | Plant response rating, Goosegrass [6, 26]: 98 | Plant response rating, Sunflower [7, 20]: 0 | Plant response rating, Sunflower [7, 21]: 0 | Plant response rating, Sunflower [7, 22]: 0 | Plant response rating, Sunflower ([7]; 250 g ai/ha, scale 0 to 100, 0 no effect, 100 complete control): 5 | Plant response rating, Canarygrass [8, 24]: 25 | Plant response rating, Canarygrass [8, 25]: 35 | Plant response rating, Canarygrass [8, 22]: 60 | Plant response rating, Canarygrass ([8]; 250 g ai/ha, scale 0 to 100): 90 | Plant response rating, Windgrass [9, 24]: 50 | Plant response rating, Windgrass [9, 25]: 55 | Plant response rating, Windgrass [9, 22]: 90 | Plant response rating, Deadnettle [10, 24]: 100 | Plant response rating, Deadnettle [10, 25]: 100 | Plant response rating, Deadnettle [10, 22]: 100 | Plant response rating, Deadnettle ([10]; 250 g ai/ha, scale 0 to 100): 100

Source: patent US9302999B2, “Substituted triazoles as herbicides” (E. I. DU PONT DE NEMOURS AND COMPANY, priority 2012, dated 2016)
